Consider seven compounds from PubChem BioAssay AID493172 (Broad Institute, 2011).

Activity calls are given as the source filed them.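 Rule for the calls: active = falling signal with an AC50 no greater than ten times the top valid dose tested for that sample; inconclusive = flat curve with inhibition of 30 to 70 percent, or poor fit; inactive = activity in the rising direction, and the rest.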

One assay addresses LuxS (S-ribosylhomocysteine lyase), bacterial. Briefly: LuxS enzyme inhibitors, dose response, biochemical, dry powder, set 2, absorbance (AID 493172). As to conditions: purified Co-LuxS, DTNB homocysteine absorbance 412 nm.
In general, AC50 refers to the midpoint of the concentration-response curve, whichever way the signal moves. Consider `C=Cn1c(C(=O)O)ccc1-c1ccc(CC)cc1`, for which the AC50 was > 35 µM (inactive).

The same assay, now with this note: purified Co-LuxS, DTNB homocysteine absorbance 412 nm; at 35 µM (top of the series).
`COc1cc(NC(=O)CN2C(=O)NC(c3ccccc3)(c3ccccc3)C2=O)cc(OC)c1`: the “activity change, negative = inhibition” value was “inactive”. Take `CCc1ccc(S(=O)(=O)Nc2ccc(Br)cn2)cc1`: the “activity change, negative = inhibition” value was “inactive”. The same measure, in the same setting: the value for `Cc1cccc(NS(=O)(=O)c2ccc(Oc3ccccc3)cc2)n1` was “inactive”; that for `Cn1cnc(S(=O)(=O)Nc2ccc(OC(F)(F)F)cc2)c1` was “inactive”; that for `Cc1cccc(NC(=O)c2ccc(Oc3ccccc3)cc2)n1` was “inactive”.

Consider `CCc1ccc(C(=O)Nc2ccc(Br)cn2)cc1`, for which the “activity change, negative = inhibition” value is “inactive”.
